# According to patent US9249140B2, “Bicyclic heteroaromatic compounds” (MERCK PATENT GMBH, priority 2011, dated 2016):
# Assays:
# Type in all cases: biochemical
# [1] = molecular target: T1, FAK (Homo sapiens, UniProt Q05397); experiment: FAK kinase assay (autophosphorylation), 384-well flashplate; conditions: enzymatic; 1 μM ATP; read-out: IC50 (enzymatic), FAK inhibition
# T1 construct: 2 nM FAK, 400 nM biotinylated substrate
# Protocol: The focal adhesion kinase (FAK) assay is carried out either as a 384-well flashplate assay (for example for Topcount measurements) or as a 384-well image flashplate assay (for LEADseeker measurements). […] The reaction is stopped using 25 μl of 200 mM EDTA. After 30 min at 30° C., the liquid is removed, and each well is washed three times with 100 μl of 0.9% sodium chloride solution. Non-specific reaction is determined in the presence of 1 μM EMD 1076893/0(PF-562271). The radioactivity is measured using Topcount (in the case of the use of flashplates) or using LEADseeker (in the case of the use of image flashplates).
# [2] = molecular target: T2, IKKε (Homo sapiens, UniProt Q14164); experiment: IKKε kinase test (IKKepsilon), 384-well flashplate; conditions: enzymatic; 10 μM ATP; read-out: IKKe IC50 (enzymatic)
# T2 construct: 1 nM IKKε, 800 nM biotinylated IκBα(19-42) peptide
# T2 sequence (Q14164 1-716): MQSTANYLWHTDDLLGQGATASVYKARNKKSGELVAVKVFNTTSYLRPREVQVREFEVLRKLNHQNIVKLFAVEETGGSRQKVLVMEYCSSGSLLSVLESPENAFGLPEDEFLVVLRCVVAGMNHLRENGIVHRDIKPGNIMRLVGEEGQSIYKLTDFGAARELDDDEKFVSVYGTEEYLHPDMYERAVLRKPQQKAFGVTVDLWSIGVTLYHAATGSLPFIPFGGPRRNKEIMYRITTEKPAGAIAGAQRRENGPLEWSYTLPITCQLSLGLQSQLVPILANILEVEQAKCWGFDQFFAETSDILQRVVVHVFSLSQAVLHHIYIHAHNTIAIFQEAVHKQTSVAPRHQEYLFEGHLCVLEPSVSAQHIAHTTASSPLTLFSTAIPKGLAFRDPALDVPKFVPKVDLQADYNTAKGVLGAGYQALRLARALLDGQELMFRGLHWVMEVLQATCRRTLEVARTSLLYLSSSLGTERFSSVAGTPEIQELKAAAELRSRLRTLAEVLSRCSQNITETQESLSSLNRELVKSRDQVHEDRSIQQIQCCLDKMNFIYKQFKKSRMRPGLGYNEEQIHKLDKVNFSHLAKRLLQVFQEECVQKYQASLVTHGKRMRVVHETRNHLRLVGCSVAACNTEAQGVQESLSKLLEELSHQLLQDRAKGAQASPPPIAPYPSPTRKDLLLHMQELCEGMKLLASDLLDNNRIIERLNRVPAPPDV
# Protocol: The kinase assay is performed as 384-well flashplate assay. 1 nM IKKε, 800 nM biotinylated IκBα(19-42) peptide (biotin-C6-C6-[…] (SEQ ID NO: 2)) and 10 μM ATP (with 0.3 μCi of 33P-ATP/well) are incubated in a total volume of 50 μl (10 mM MOPS, 10 mM magnesium acetate, 0.1 mM EGTA, 1 mM dithiothreitol, 0.02% of Brij, 0.1% of BSA, 0.1% of BioStab, pH 7.5) with or without test substance at 30° C. for 120 min. The reaction is stopped using 25 μl of 200 mM EDTA solution, filtered off with suction after 30 min at room temperature, and the wells are 25 washed 3 times with 100 μl of 0.9% NaCl solution. The non-specific proportion of the kinase reaction (blank) is determined using 3 μM EMD 1126352 (BX-795). Radioactivity is measured in the Topcount. IC50 values are calculated using RS1.
# [3] = molecular target: T3, TANK binding kinase (TBK1) (Homo sapiens, UniProt Q9UHD2); experiment: TBK1 kinase test, 384-well flashplate; conditions: enzymatic; 10 μM ATP
# T3 sequence (Q9UHD2 1-729): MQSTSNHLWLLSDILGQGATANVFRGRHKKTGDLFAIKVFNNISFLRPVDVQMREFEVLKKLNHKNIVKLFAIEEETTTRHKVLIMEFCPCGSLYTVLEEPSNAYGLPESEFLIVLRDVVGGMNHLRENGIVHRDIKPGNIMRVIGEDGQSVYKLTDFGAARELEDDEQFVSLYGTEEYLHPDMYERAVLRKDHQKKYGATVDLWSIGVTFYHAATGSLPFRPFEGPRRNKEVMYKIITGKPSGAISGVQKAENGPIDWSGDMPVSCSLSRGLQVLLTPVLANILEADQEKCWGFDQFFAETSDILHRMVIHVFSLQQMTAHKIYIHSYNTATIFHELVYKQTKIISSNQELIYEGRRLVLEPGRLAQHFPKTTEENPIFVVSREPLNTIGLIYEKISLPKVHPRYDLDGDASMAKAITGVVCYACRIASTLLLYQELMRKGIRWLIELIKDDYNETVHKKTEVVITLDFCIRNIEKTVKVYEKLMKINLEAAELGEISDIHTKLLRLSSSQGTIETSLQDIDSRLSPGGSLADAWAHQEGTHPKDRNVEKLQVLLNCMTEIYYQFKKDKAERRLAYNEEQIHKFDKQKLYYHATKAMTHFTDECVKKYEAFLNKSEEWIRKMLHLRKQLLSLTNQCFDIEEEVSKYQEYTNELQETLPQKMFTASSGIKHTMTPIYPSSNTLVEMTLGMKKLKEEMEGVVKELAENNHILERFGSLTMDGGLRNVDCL
# Protocol: The kinase assay is performed as 384-well flashplate assay. 0.6 nM TANK binding kinase (TBK1), 800 nM biotinylated MELK-derived peptide (biotin-Ah-Ah-[…] (SEQ ID NO: 3)) and 10 μM ATP (with 0.25 μCi of 33P-ATP/well) are incubated in a total volume of 50 μl (10 mM MOPS, 10 mM magnesium acetate, 0.1 mM EGTA, 1 mM DTT, 0.02% of Brij35, 0.1% of BSA, pH 7.5) with or without test substance at 30° C. for 120 min. The reaction is stopped using 25 μl of 200 mM EDTA solution, filtered off with suction after 30 min at room temperature, and the wells are washed 3 times with 100 μl of 0.9% NaCl solution. The non-specific proportion of the kinase reaction (blank) is determined using 100 nM staurosporine. Radioactivity is measured in the Topcount. IC50 values are calculated using RS1.
# [4] = molecular target: T4, PDK1 (Homo sapiens, UniProt O15530); experiment: Test for the inhibition of PDK1, 384-well flashplate; conditions: enzymatic; 4 μM ATP
# T4 construct: the PDK1 sample His6-PDK1(Δ1-50)(3.4 nM)
# T4 sequence (O15530 51-556): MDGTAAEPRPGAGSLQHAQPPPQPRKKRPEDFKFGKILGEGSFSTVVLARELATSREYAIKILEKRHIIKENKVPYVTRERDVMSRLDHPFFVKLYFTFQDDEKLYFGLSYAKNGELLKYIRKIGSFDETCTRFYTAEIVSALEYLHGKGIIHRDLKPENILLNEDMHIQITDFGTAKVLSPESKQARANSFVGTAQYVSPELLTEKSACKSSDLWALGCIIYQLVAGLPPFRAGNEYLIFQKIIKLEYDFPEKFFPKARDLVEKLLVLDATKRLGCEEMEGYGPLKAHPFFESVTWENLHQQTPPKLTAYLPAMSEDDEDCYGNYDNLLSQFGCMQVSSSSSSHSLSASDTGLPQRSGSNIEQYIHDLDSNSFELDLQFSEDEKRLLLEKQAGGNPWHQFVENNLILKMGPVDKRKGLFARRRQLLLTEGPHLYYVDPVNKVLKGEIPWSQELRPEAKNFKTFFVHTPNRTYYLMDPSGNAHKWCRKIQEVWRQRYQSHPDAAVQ
# Protocol: The experimental batches are carried out in a flashplate system with 384 wells/microtitration plate.
# In each case, the PDK1 sample His6-PDK1(Δ1-50)(3.4 nM) (“His6” disclosed as SEQ ID NO: 4), the PDK1 substrate biotin-bA-bA-[…] (SEQ ID NO: 1) (400 nM), 4 μM ATP (with 0.2 μCi of 33P-ATP/well) and the test substance in 50 μl of conventional experimental solution per well are incubated at 30° C. for 60 min. The test substances are employed in corresponding concentrations (if desired in a dilution series). The control is carried out without test substance. The reaction is stopped using standard methods and washed. The activity of the kinase is measured via the incorporated radioactivity in top count. In order to determine the non-specific kinase reaction (blank value), the experimental batches are carried out in the presence of 100 nM staurosporine.
# The radioactivity (decompositions per minute) of the blank value (no use of test substance in the presence of staurosporine) is subtracted from all other radioactivity values. The controls (kinase activity without test substance) are set equal to 100 percent and all other radioactivity values (after subtracting the blank value) are expressed set in relation thereto (for example in % of the control).
# T1 sequence (Q05397 whole entry): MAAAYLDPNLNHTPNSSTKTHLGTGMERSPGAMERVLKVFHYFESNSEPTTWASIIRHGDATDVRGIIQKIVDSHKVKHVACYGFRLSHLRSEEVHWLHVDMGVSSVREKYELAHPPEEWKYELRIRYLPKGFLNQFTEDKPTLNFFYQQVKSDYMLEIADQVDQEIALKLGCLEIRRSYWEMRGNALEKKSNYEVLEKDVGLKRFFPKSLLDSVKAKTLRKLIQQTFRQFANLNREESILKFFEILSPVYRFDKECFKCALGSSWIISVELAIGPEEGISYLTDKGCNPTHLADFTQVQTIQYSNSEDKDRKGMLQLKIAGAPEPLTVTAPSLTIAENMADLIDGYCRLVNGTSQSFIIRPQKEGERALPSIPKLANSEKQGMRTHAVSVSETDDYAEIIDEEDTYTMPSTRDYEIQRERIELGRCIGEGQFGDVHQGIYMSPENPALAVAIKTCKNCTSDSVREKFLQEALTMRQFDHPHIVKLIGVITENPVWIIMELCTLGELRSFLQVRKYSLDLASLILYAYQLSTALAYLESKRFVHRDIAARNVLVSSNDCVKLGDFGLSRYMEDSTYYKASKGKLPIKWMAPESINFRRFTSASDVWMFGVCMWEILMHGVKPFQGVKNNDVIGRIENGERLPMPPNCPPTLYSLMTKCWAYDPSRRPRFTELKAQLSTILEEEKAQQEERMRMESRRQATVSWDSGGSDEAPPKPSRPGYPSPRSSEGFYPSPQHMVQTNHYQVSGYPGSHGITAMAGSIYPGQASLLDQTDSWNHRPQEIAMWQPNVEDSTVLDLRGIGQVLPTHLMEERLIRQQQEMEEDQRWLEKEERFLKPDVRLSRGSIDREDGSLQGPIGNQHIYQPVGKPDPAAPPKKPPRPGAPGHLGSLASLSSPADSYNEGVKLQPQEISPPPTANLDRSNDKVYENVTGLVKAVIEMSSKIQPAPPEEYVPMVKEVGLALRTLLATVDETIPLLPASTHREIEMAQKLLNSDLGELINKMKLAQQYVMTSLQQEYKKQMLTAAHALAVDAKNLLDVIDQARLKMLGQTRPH
IC50 [1] [µM],IC50 [2] [µM],IC50 [3] [µM],IC50 [4] [µM],SMILES
–,3 to 50,0.3 to 3,0.3 to 3,"Cn1cc(-c2c(C(F)(F)F)cnc3[nH]c(-c4cccc(C(=O)N5CCOCC5)c4)cc23)cn1 [A95, {3-[4-(1-Methyl-1H-pyrazol-4-yl)-5-trifluoro-methyl-1H-pyrrolo[2,3-b]pyridin-2-yl]phenyl}-morpholin-4-ylmethanone]"
–,0.3 to 3,< 0.3,< 0.3,"Cn1cc(-c2c(C(F)(F)F)cnc3[nH]c(-c4ccc(C(=O)N5CCOCC5)cc4)cc23)cn1 [A96, {4-[4-(1-Methyl-1H-pyrazol-4-yl)-5-trifluoro-methyl-1H-pyrrolo[2,3-b]pyridin-2-yl]phenyl}-morpholin-4-ylmethanone]"
–,0.3 to 3,0.3 to 3,0.3 to 3,"O=c1ccc(-c2c(C(F)(F)F)cnc3[nH]c(-c4ccc(N5CCOCC5)cc4)cc23)c[nH]1 [A97, 5-[2-(4-Morpholin-4-ylphenyl)-5-trifluoromethyl-1H-pyrrolo[2,3-b]pyridin-4-yl]-1H-pyridin-2-one]"
–,–,–,3 to 50,"FC(F)(F)c1cnc2[nH]c(-c3ccc(N4CCOCC4)cc3)cc2c1-c1cn[nH]c1 [A102, 2-(4-Morpholin-4-ylphenyl)-4-(1H-pyrazol-4-yl)-5-trifluoromethyl-1H-pyrrolo[2,3-b]pyridine]"
–,–,–,0.3 to 3,"Cn1cc(-c2c(C(F)(F)F)cnc3[nH]c(-c4cccc(N5CCOCC5)c4)cc23)cn1 [A104, 4-(1-Methyl-1H-pyrazol-4-yl)-2-(3-morpholin-4-ylphenyl)-5-trifluoromethyl-1H-pyrrolo[2,3-b]-pyridine]"
–,–,–,0.3 to 3,"Cn1cc(-c2c(C(F)(F)F)cnc3[nH]c(-c4ccc(F)cc4)cc23)cn1 [A105, 2-(4-Fluorophenyl)-4-(1-methyl-1H-pyrazol-4-yl)-5-trifluoromethyl-1H-pyrrolo[2,3-b]pyridine]"

# Further lines, the molecule ahead of its results:
SMILES,IC50 [1] [µM],IC50 [2] [µM],IC50 [3] [µM],IC50 [4] [µM]
"CN(c1ncccc1-c1cc2ccnc(Nc3ccc4c(c3)CC(=O)N4)c2[nH]1)S(C)(=O)=O [A1, N-Methyl-N-{3-[7-(2-oxo-2,3-dihydro-1H-indol-5-ylamino)-1H-pyrrolo-[2,3-c]pyridin-2-yl]-pyridin-2-yl}methanesulfonamide]",3 to 50,–,–,–
"CN(c1ncccc1-c1cc2ccnc(Nc3ccc(N4CCOCC4)cc3)c2[nH]1)S(C)(=O)=O [A2, N-Methyl-N-{3-[7-(4-morpholin-4-ylphenyl-amino)-1H-pyrrolo[2,3-c]pyridin-2-yl]pyridin-2-yl}methanesulfonamide]",3 to 50,–,–,–
"CN(c1ncccc1-c1cc2ccnc(Nc3ccc4c(c3)CCC(=O)N4)c2[nH]1)S(C)(=O)=O [A3, N-Methyl-N-{3-[7-(2-oxo-1,2,3,4-tetrahydroquinolin-6-ylamino)-1H-pyrrolo[2,3-c]pyridin-2-yl]pyridin-2-yl}methanesulfonamide]",3 to 50,–,–,–
"COc1cc(N2CCOCC2)ccc1Nc1ncnc2nc(-c3cccnc3N(C)S(C)(=O)=O)[nH]c12 [A4, N-{3-[6-(2-Methoxy-4-morpholin-4-ylphenyl-amino)-7H-purin-8-yl]pyridin-2-yl}-N-methyl-methanesulfonamide]",3 to 50,–,–,–
"CN(c1ncccc1-c1nc2ncnc(Nc3ccc(N4CCOCC4)cc3)c2[nH]1)S(C)(=O)=O [A5, N-Methyl-N-{3-[6-(4-morpholin-4-ylphenyl-amino)-7H-purin-8-yl]pyridin-2-yl}methanesulfonamide]",3 to 50,–,–,–
"CN(c1ncccc1-c1nc2ncnc(Nc3cnn(C)c3)c2[nH]1)S(C)(=O)=O [A6, N-Methyl-N-{3-[6-(1-methyl-1H-pyrazol-4-yl-amino)-7H-purin-8-yl]pyridin-2-yl}methanesulfonamide]",3 to 50,–,–,–
"CN(c1ncccc1-c1nc2ccnc(Nc3ccc4c(c3)CCC(=O)N4)c2[nH]1)S(C)(=O)=O [A7, N-Methyl-N-{3-[4-(2-oxo-1,2,3,4-tetra-hydroquinolin-6-ylamino)-3H-imidazo[4,5-c]-pyridin-2-yl]pyridin-2-yl}methanesulfonamide]",3 to 50,–,–,–
"Nc1ccc(-c2c(C(F)(F)F)cnc3[nH]c(-c4ccc(N5CCOCC5)cc4)cc23)cc1 [A100, 4-[2-(4-Morpholin-4-ylphenyl)-5-trifluoromethyl-1H-pyrrolo[2,3-b]pyridin-4-yl]phenylamine]",–,–,0.3 to 3,–
